Data taken from patent US20220105127A1, “METHODS FOR PROVIDING THE BENEFITS OF METHIONINE RESTRICTION WITHOUT DIETARY RESTRICTION” (priority 2020, published 2022).

Legend:
Format in all cases: in vivo, mouse
IGF-1 [1] = assay: Experiment 2: high-fat diet with first compounds, plasma IGF-1 ELISA; conditions: for Plasma IGF-1, Females / Plasma IGF-1, Males: high-fat diet 9 weeks, untreated = 100%, lysine 6.45%, OBS 4.3%, SPC 4.3% of food; for Plasma IGF-1, Males: male mice
Procedure: (§1) Food and water were provided ad libitum.
(§2) Body mass and food consumption were monitored once a week for sixteen weeks. Prior to blood collection, animals were fasted for 4 hours to establish a physiological baseline. Blood was then collected from the retro-orbital plexus and processed using EDTA-K2-coated blood collection tubes (Milian Dutscher Group; Geneva, Switzerland). The resulting plasma was frozen and stored at −80° C. until used for analysis. A portion of each blood sample was used for blood glucose determination using an Abbott Freestyle Lite glucometer and glucose strips (Abbott Diabetes Care, Inc.; Alameda, Calif.). At the end of each study, animals were fasted and bled, as described above. The mice were then sacrificed, their overall body condition was assessed, and certain physiological parameters were measured. The inguinal and perigonadal fat pads, as well as liver of each mouse, were harvested by surgical resection, weighed, flash frozen, and stored at −80° C.
(§3) Enzyme-linked immunosorbent assay (ELISA) kits were obtained commercially and used to measure plasma levels of IGF-1 (R&D Systems; Minneapolis, Minn.), adiponectin (R&D Systems), FGF-21 (Millipore Corp.; Billerica, Mass.), leptin (R&D Systems), growth hormone (Millipore Corp.), and insulin (ALPCO Diagnostics; Salem, N.H.). Tests were performed according to the manufacturers' recommendations and measured using a Molecular Devices SpectraMax M5 Microplate Reader (Molecular Devices LLC; San Jose, Calif.). Two technical replicates were performed for each sample and the statistical significance of the resulting values determined by unpaired two-tailed t-tests using the software package Prism 8 (Graph-Pad Software; La Jolla, Calif.).

adiponectin [2] = assay: Experiment 2: high-fat diet with first compounds, plasma adiponectin ELISA; conditions: high-fat diet 9 weeks, untreated = 100%, lysine 6.45%, OBS 4.3%, SPC 4.3% of food; for Plasma Adiponectin, Females: female mice; for Plasma Adiponectin, Males: male mice
Procedure: as §1, §2, §3

C57BL/6J mice [3] = assay: Experiment 2: high-fat diet with first compounds, body mass and inguinal/perigonadal fat pad mass; conditions: for Total Body Mass, Females / Inguinal Fat Mass, Females / Perigonadal Fat Mass, Females / Total Body Mass, Males / Inguinal Fat Mass, Males / Perigonadal Fat Mass, Males: high-fat diet 9 weeks, untreated = 100%, lysine 6.45%; for Total Body Mass, Females / Total Body Mass, Males: O-benzyl serine 4.3%, S-phenyl cysteine 4.3% of food; for Inguinal Fat Mass, Females / Perigonadal Fat Mass, Females / Inguinal Fat Mass, Males / Perigonadal Fat Mass, Males: OBS 4.3%, SPC 4.3% of food; for Total Body Mass, Males / Inguinal Fat Mass, Males / Perigonadal Fat Mass, Males: male mice; for Total Body Mass, Males: tryptophan dose not given
Procedure: as §1
as §2, with “Prior” for “Body mass and food consumption were monitored once a week for sixteen weeks. Prior”

plasma glucose [4] = assay: Experiment 2: high-fat diet with first compounds, plasma glucose; conditions: for Plasma Glucose, Females / Plasma Glucose, Males: high-fat diet 9 weeks, untreated = 100%, lysine 6.45%, OBS 4.3%, SPC 4.3% of food; for Plasma Glucose, Males: male mice
Procedure: as §1, §2

leptin [5] = assay: Experiment 2: high-fat diet with first compounds, plasma leptin ELISA; conditions: for Plasma Leptin, Females / Plasma Leptin, Males: high-fat diet 9 weeks, untreated = 100%, lysine 6.45%, OBS 4.3%, SPC 4.3% of food; for Plasma Leptin, Males: male mice
Procedure: as §1, §2, §3

FGF-21 [6] = assay: Experiment 2: high-fat diet with first compounds, plasma FGF-21 ELISA; conditions: untreated = 100%; for Plasma FGF-21, Females: female mice, high-fat diet 9 weeks, lysine 6.45%, OBS 4.3%, SPC 4.3% of food
Procedure: as §1, §2, §3

insulin [7] = assay: Experiment 2: high-fat diet with first compounds, plasma insulin ELISA; conditions: for Plasma Insulin, Females / Plasma Insulin, Males: high-fat diet 9 weeks, untreated = 100%, lysine 6.45%, OBS 4.3%, SPC 4.3% of food; for Plasma Insulin, Males: male mice
Procedure: as §1, §2, §3

plasma glucose [8] = assay: Experiment 1: high-fat diet with selenium compounds, plasma glucose; conditions: untreated = 100%, sodium selenite 0.0073% of food
Procedure: (§4) All animal studies conducted were approved by the Institutional Animal Care and Use Committee (IACUC) of the Orentreich Foundation for the Advancement of Science, Inc. (Permit Number: 0511 MB). C57BL/6J mice (stock number 000664) were purchased from the Jackson Laboratories (Bar Harbor, Me.) and housed in a conventional animal facility maintained at 20±2° C., 50±10% relative humidity, with a 12 hr/12 hr light/dark photoperiod. Food and water were provided ad libitum. Upon arrival, mice were acclimatized for up to one week and fed Purina Lab Chow 5001 (Ralston Purina, Co.; St. Louis, Mo.).
(§5) At the beginning of the experiment, the mice were divided into 5 groups with each group being fed one of five isocaloric (5.3 kcal/gm) high-fat diets ad libitum for several weeks. Each high-fat diet comprising a base of 12% kcal protein, 31% kcal carbohydrate, and 57% kcal fat. […] Amounts of selenium-containing compounds used for this and subsequent experiments were determined from pilot studies aimed at identifying minimal doses that still achieve high efficacy. […]
(§6) Body mass and food consumption were monitored once a week for sixteen weeks. […] The mice were then sacrificed, their overall body condition was assessed, and certain physiological parameters were measured. […]

FGF-21 [9] = assay: Experiment 1: high-fat diet with selenium compounds, plasma FGF-21 ELISA; conditions: untreated = 100%, sodium selenite 0.0073% of food
Procedure: as §4, §5, §6

IGF-1 [10] = assay: Experiment 1: high-fat diet with selenium compounds, plasma IGF-1 ELISA; conditions: sodium selenite 0.0073% of food
Procedure: as §4
(§7) At the beginning of the experiment, the mice were divided into 5 groups with each group being fed one of five isocaloric (5.3 kcal/gm) high-fat diets ad libitum for several weeks. Each high-fat diet comprising a base of 12% kcal protein, 31% kcal carbohydrate, and 57% kcal fat. The first group's diet was the control-fed diet and included the base and methionine in an amount that represented about 0.86% of the weight of the food (sometimes referred to as “control group,” “control-fed group,” or “group 1”). […] Amounts of selenium-containing compounds used for this and subsequent experiments were determined from pilot studies aimed at identifying minimal doses that still achieve high efficacy. […]
as §6
as §3, with “Two technical replicates were performed for each sample and the statistical significance of the resulting values determined by unpaired two-tailed t-tests using the software package Prism 8 (Graph-Pad Software; La Jolla, Calif.).” left out

insulin [11] = assay: Experiment 1: high-fat diet with selenium compounds, plasma insulin ELISA; conditions: untreated = 100%, sodium selenite 0.0073% of food
Procedure: as §4, §5, §6

adiponectin [12] = assay: Experiment 1: high-fat diet with selenium compounds, plasma adiponectin ELISA; conditions: untreated = 100%, sodium selenite 0.0073% of food
Procedure: as §4, §5, §6

leptin [13] = assay: Experiment 1: high-fat diet with selenium compounds, plasma leptin ELISA
Procedure: as §4, §7, §6
as §3, with “Two technical replicates were performed for each sample and the statistical significance of the resulting values determined by unpaired two-tailed t-tests using the software package Prism 8 (Graph-Pad Software; La Jolla, Calif.).” left out

C57BL/6J mice [14] = assay: Experiment 1: high-fat diet with selenium compounds, body mass, fat pad and liver mass; conditions: high-fat diet, untreated = 100%, sodium selenite 0.0073% of food, selenomethionine 0.0036% or 0.0073% (which not stated)
Procedure: as §4
At the beginning of the experiment, the mice were divided into 5 groups with each group being fed one of five isocaloric (5.3 kcal/gm) high-fat diets ad libitum for several weeks. Each high-fat diet comprising a base of 12% kcal protein, 31% kcal carbohydrate, and 57% kcal fat. The first group's diet was the control-fed diet and included the base and methionine in an amount that represented about 0.86% of the weight of the food (sometimes referred to as “control group,” “control-fed group,” or “group 1”). The second group's diet was the methionine-restricted group where the base-diet was restricted to 0.12% methionine as a percentage of the total weight of the food (sometimes referred to as “methionine-restricted group” or “group 2”). The third group was fed the base diet containing 0.86% methionine, which was supplemented with sodium selenite in an amount representing 0.0073% of the total weight of the food (sometimes referred to as “sodium selenite-supplemented group” or “group 3”). The fourth group was fed the base diet containing 0.86% methionine, supplemented with 0.0036% selenomethionine, as a percentage of the total food weight (sometimes referred to as “group 4”). The fifth group was fed the base diet containing 0.86% methionine as a percentage of the total weight of the food, supplemented with 0.0073% selenomethionine as a percentage of the total weight of the food (sometimes referred to as “group 5”). Amounts of selenium-containing compounds used for this and subsequent experiments were determined from pilot studies aimed at identifying minimal doses that still achieve high efficacy. […] The amount of selenomethionine administered to the animals in the fourth and fifth groups was approximately 1/200 and 1/100 times respectively, of the levels of sulfur-containing amino acids (i.e., methionine and cysteine) present in the subjects' diets.
as §2

[15] = female mice, 4.3% S-phenyl cysteine, high-fat diet, 9 week interval
[16] = female mice, 4.3% S-phenyl cysteine, high-fat diet, 9 week interval, p<0.001 vs untreated

SMILES | Plasma IGF-1, Females (IGF-1 [1]; female mice) [%] | Plasma IGF-1, Males (IGF-1 [1]) [%] | Plasma Adiponectin, Females (adiponectin [2]) [%] | Plasma Adiponectin, Males (adiponectin [2]) [%] | Total Body Mass, Females (C57BL/6J mice [3]; female mice) [%] | Inguinal Fat Mass, Females (C57BL/6J mice [3]; female mice) [%] | Perigonadal Fat Mass, Females (C57BL/6J mice [3]; female mice) [%] | Total Body Mass, Males (C57BL/6J mice [3]) [%] | Inguinal Fat Mass, Males (C57BL/6J mice [3]) [%] | Perigonadal Fat Mass, Males (C57BL/6J mice [3]) [%] | Plasma Glucose, Females (plasma glucose [4]; female mice) [%] | Plasma Glucose, Males (plasma glucose [4]) [%] | Plasma Leptin, Females (leptin [5]; female mice) [%] | Plasma Leptin, Males (leptin [5]) [%] | Plasma FGF-21, Females (FGF-21 [6]) [%] | Plasma Insulin, Females (insulin [7]; female mice) [%] | Plasma Insulin, Males (insulin [7]) [%] | other results
NCCCC[C@H](N)C(=O)O [Lysine, lysine] | 66 | 68 | 125 | 92 | 72 | 38 | 37 | 91 | 42 | 34 | 73 | 84 | 28 | 13 | 144 | 41 | 22 | 
N[C@@H](COCc1ccccc1)C(=O)O [O-Benzyl-Serine, O-benzyl serine] | 79 | 72 | 106 | 108 | 69 | 27 | 25 | 89 | 42 | 31 | 71 | 93 | 20 | 12 | 280 | 37 | 28 | 
N[C@@H](CSc1ccccc1)C(=O)O [S-Phenyl-Cysteine, S-phenyl cysteine] | 72 | 66 | 100 | 213 | 71 | 23 | 25 | 87 | 44 | 35 | 71 | 70 | 16 | 11 | 181 | 32 | 25 | plasma IGF-1 level over time (FIG. 8A) (IGF-1 [1]; [15]): sustained reductions of plasma IGF-1 levels; accumulation of inguinal and perigonadal adipose tissue (FIGS. 6A, 6B) (C57BL/6J mice [3]; [16]): robust protection against the accumulation of adipose tissue; total weight gain (FIG. 5) (C57BL/6J mice [3]; [16]): robust prevention of total weight gain; plasma glucose level over time (FIG. 7A) (plasma glucose [4]; female mice, 4.3% S-phenyl cysteine, high-fat diet, 9 week interval, more efficacious than methionine restriction): maintenance of low plasma glucose; plasma leptin level over time (FIG. 8B) (leptin [5]; [15]): maintenance of low plasma leptin levels; plasma insulin level over time (FIG. 7B) (insulin [7]; [15]): maintenance of low insulin levels
O=[Se](O)O [Sodium Selenite, sodium selenite] |  |  |  |  |  |  |  |  |  |  |  |  |  |  |  |  |  | Plasma Glucose, Females (plasma glucose [8]; female mice): 69%; Plasma Glucose, Males (plasma glucose [8]; male mice): 71%; Plasma FGF-21, Females (FGF-21 [9]; female mice): 3971%; Plasma FGF-21, Males (FGF-21 [9]; male mice): 3045%; Plasma IGF-1, Females (IGF-1 [10]; female mice, untreated = 100%): 35%; Plasma IGF-1, Males (IGF-1 [10]; male mice, untreated = 100%): 63%; reduction of plasma IGF-1 levels as compared with control values (IGF-1 [10]; at the conclusion of experiment 1): 37%; Plasma Insulin, Females (insulin [11]; female mice): 25%; Plasma Insulin, Males (insulin [11]; male mice): 19%; Plasma Adiponectin, Females (adiponectin [12]; female mice): 134%; Plasma Adiponectin, Males (adiponectin [12]; male mice): 128%; Plasma Leptin, Females (leptin [13]; female mice, high-fat diet, untreated = 100%, sodium selenite 0.0073% of food): 17%; Plasma Leptin, Males (leptin [13]; male mice, high-fat diet, untreated = 100%, sodium selenite 0.0073% of food): 4%; reduction in circulating leptin as compared with controls (leptin [13]; male mice, sodium selenite-supplemented high-fat diet for 16 weeks): 96%; Inguinal Fat Mass, Females (C57BL/6J mice [14]; female mice): 19%; Perigonadal Fat Mass, Females (C57BL/6J mice [14]; female mice): 20%; Total Body Mass, Females (C57BL/6J mice [14]; female mice, 16 weeks): 66%; Inguinal Fat Mass, Males (C57BL/6J mice [14]; male mice): 17%; Perigonadal Fat Mass, Males (C57BL/6J mice [14]; male mice): 20%; Total Body Mass, Males (C57BL/6J mice [14]; male mice, 16 weeks): 60%
N[C@@H](Cc1c[nH]c2ccccc12)C(=O)O [Tryptophan, tryptophan] |  | 73 |  | 118 |  |  |  | 85 | 50 | 39 |  | 94 |  | 18 |  |  | 56 | Plasma FGF-21, Males (FGF-21 [6]; male mice, high-fat diet, tryptophan dose not given): 502%
